Measured values from patent US4272437A, “Antibacterial agents, and 4-thio azetidinone intermediates” (priority 1979, dated 1981).
Converted amounts (≈) assume the structure as drawn. Like-named read-outs stand apart in the source and are kept apart here.

Key:
Str. pneumoniae A-9585 = assay: MIC, tube dilution, Streptococcus pneumoniae A9585; assay type: cell-based; conditions: Streptococcus pneumoniae, A9585, Str. pneumoniae A9585; overnight 37° C., Nutrient Broth; read-out: Minimum Inhibitory Concentration (M.I.C.)
Text: (§1) Representative compounds of the present invention were subjected to in vitro antibiotic screening against a variety of microorganisms.

Str. pyogenes A-9604 = assay: MIC, tube dilution, Streptococcus pyogenes A9604; assay type: cell-based; conditions: Streptococcus pyogenes, A9604, Str. pyogenes A9604; overnight 37° C., Nutrient Broth; read-out: Minimum Inhibitory Concentration (M.I.C.)
Text: as §1

Staph. aureus A-9537 = assay: MIC, tube dilution, Staphylococcus aureus A9537; assay type: cell-based; conditions: Staphylococcus aureus, A9537, Staph. aureus A9537; overnight 37° C., Nutrient Broth; read-out: Minimum Inhibitory Concentration (M.I.C.)
Text: as §1

[1] = tested on: Staph. aureus A-9537 and 50% serum; assay: MIC, tube dilution, Staph. aureus A9537 + 50% serum; assay type: cell-based, Staphylococcus aureus; conditions: Staphylococcus aureus, overnight 37° C., read-out: Minimum Inhibitory Concentration (M.I.C.)
Text: as §1

[2] = tested on: Staph. aureus (Pen-Res) A-9606; assay: MIC, tube dilution, Staphylococcus aureus A9606 (Pen-Res); assay type: cell-based; conditions: Staphylococcus aureus, Staph. aureus A9606 (Pen-Res); overnight 37° C.; read-out: Minimum Inhibitory Concentration (M.I.C.)
Text: as §1

[3] = tested on: Staph. aureus (Meth-Res) A-15097; assay: MIC, tube dilution, Staphylococcus aureus A15097 (Meth-Res); assay type: cell-based; conditions: Staph. aureus A15097 (Meth-Res), overnight 37° C.; for MIC: Staphylococcus aureus, read-out: Minimum Inhibitory Concentration (M.I.C.)
Text: as §1

Str. faecalis A-20688 = assay: MIC, tube dilution, Streptococcus faecalis A20688; assay type: cell-based; conditions: Enterococcus faecalis, A20688, Str. faecalis A20688; overnight 37° C.; read-out: Minimum Inhibitory Concentration (M.I.C.)
Text: as §1

E. coli A-15119 = assay: MIC, tube dilution, Escherichia coli A15119; assay type: cell-based; conditions: Escherichia coli, A15119, E. coli A15119; overnight 37° C.; read-out: Minimum Inhibitory Concentration (M.I.C.)
Text: as §1

E. coli A-20341-1 = assay: MIC, tube dilution, Escherichia coli A20341-1; assay type: cell-based; conditions: Escherichia coli, A203411, E. coli A20341-1; overnight 37° C.; read-out: Minimum Inhibitory Concentration (M.I.C.)
Text: as §1

K. pneumoniae A-15130 = assay: MIC, tube dilution, Klebsiella pneumoniae A15130; assay type: cell-based; conditions: Klebsiella pneumoniae, A15130, K. pneumoniae A15130; overnight 37° C.; read-out: Minimum Inhibitory Concentration (M.I.C.)
Text: as §1

[4] = tested on: Klebsiella species A20468; assay: MIC, tube dilution, Klebsiella species A20468; assay type: cell-based; conditions: Klebsiella species (K. pneumoniae) A20468; overnight 37° C.; read-out: Minimum Inhibitory Concentration (M.I.C.)
Text: as §1

Pr. mirabilis A-9900 = assay: MIC, tube dilution, Proteus mirabilis A9900; assay type: cell-based; conditions: Proteus mirabilis, A9900, Proteus mirabilis A9900; overnight 37° C.; read-out: Minimum Inhibitory Concentration (M.I.C.)
Text: as §1

Pr. morganii A-15153 = assay: MIC, tube dilution, Proteus morganii A15153; assay type: cell-based; conditions: Morganella morganii, A15153, Proteus morganii A15153; overnight 37° C.; read-out: Minimum Inhibitory Concentration (M.I.C.)
Text: as §1

Ser. marcescens A-20019 = assay: MIC, tube dilution, Serratia marcescens A20019; assay type: cell-based; conditions: Serratia marcescens, A20019, Serratia marcescens A20019; overnight 37° C.; read-out: Minimum Inhibitory Concentration (M.I.C.)
Text: as §1

Ent. cloacae A-9659 = assay: MIC, tube dilution, Enterobacter cloacae A9659; assay type: cell-based; conditions: Enterobacter cloacae, A9659, Enterobacter cloacae A9659; overnight 37° C.; read-out: Minimum Inhibitory Concentration (M.I.C.)
Text: as §1

Ent. cloacae A-9656 = assay: MIC, tube dilution, Enterobacter cloacae A9656; assay type: cell-based; conditions: Enterobacter cloacae, A9656, Enterobacter cloacae A9656; overnight 37° C.; read-out: Minimum Inhibitory Concentration (M.I.C.)
Text: as §1

Ps. aeruginosa A-9843A = assay: MIC, tube dilution, Pseudomonas aeruginosa A9843A; assay type: cell-based; conditions: Pseudomonas aeruginosa, A9843A, read-out: Minimum Inhibitory Concentration (M.I.C.), Pseudomonas aeruginosa A9843A; overnight 37° C.
Text: as §1

Ps. aeruginosa A-21213 = assay: MIC, tube dilution, Pseudomonas aeruginosa A21213; assay type: cell-based; conditions: Pseudomonas aeruginosa, A21213, Pseudomonas aeruginosa A21213; overnight 37° C.; read-out: Minimum Inhibitory Concentration (M.I.C.)
Text: as §1

Proteus rettgeri A21203 = assay: MIC, tube dilution, Proteus rettgeri A21203; assay type: cell-based; conditions: Providencia rettgeri, A21203, Proteus rettgeri A21203; overnight 37° C.; read-out: Minimum Inhibitory Concentration (M.I.C.)
Text: as §1

Proteus vulgaris A21559 = assay: MIC, tube dilution, Proteus vulgaris A21559; assay type: cell-based; conditions: Proteus vulgaris, A21559, Proteus vulgaris A21559; overnight 37° C.; read-out: Minimum Inhibitory Concentration (M.I.C.)
Text: as §1

S. aureus A9537 = assay: In vivo protection of mice, lethal infection with S. aureus A9537; conditions: Staphylococcus aureus, A9537, im, IM, 2 treatments, read-out: PD50
Method: Representative compounds of the present invention were also tested in vivo in mice and their PD50 (dose of compound in mg/kg required to protect 50% of the treated mice against an otherwise lethal infection of a micro-organism) values determined with respect to the test organisms shown below.

Row | Compound | MIC (Str. pneumoniae A-9585) | MIC (Str. pyogenes A-9604) | MIC (Staph. aureus A-9537) | MIC [1] | MIC [2] | MIC [3] | MIC (Str. faecalis A-20688) | MIC (E. coli A-15119) | MIC (E. coli A-20341-1) | MIC (K. pneumoniae A-15130) | MIC [4] | MIC (Pr. mirabilis A-9900) | MIC (Pr. morganii A-15153) | MIC (Ser. marcescens A-20019) | MIC (Ent. cloacae A-9659) | MIC (Ent. cloacae A-9656) | MIC (Ps. aeruginosa A-9843A) | MIC (Proteus rettgeri A21203) | MIC (Proteus vulgaris A21559) | ED50 (S. aureus A9537; 8 × 10^5 organisms) | further results
1 | CC(N)CCC1=C(C(=O)O)N2C(=O)C[C@H]2S1 (stereo partly shown) [Example 80, 2-(3'-Aminobutyl)-penem-3-carboxylic Acid] | 0.03 µg/mL (≈ 0.124 µM) | 0.06 µg/mL (≈ 0.248 µM) | 0.06 µg/mL (≈ 0.248 µM) | 0.25 µg/mL | 0.5 µg/mL (≈ 2.06 µM) | > 63 µg/mL | 16 µg/mL (≈ 66 µM) | 4 µg/mL (≈ 16.5 µM) | 8 µg/mL (≈ 33 µM) | 8 µg/mL (≈ 33 µM) | > 63 µg/mL | 4 µg/mL (≈ 16.5 µM) | 16 µg/mL (≈ 66 µM) | 8 µg/mL (≈ 33 µM) | 16 µg/mL (≈ 66 µM) | 8 µg/mL (≈ 33 µM) | 63 µg/mL (≈ 260 µM) | 8 µg/mL (≈ 33 µM) | 8 µg/mL (≈ 33 µM) | 0.6 mg/kg | MIC (Ps. aeruginosa A-21213): > 63 µg/mL
2 | NCC1CC1C1=C(C(=O)O)N2C(=O)CC2S1 [Example 79, (1'R,2'S,5S and 1'S,2'R,5S; 1'S,2'R,5R and 1'R,2'S,5S) 2-(trans-2-aminomethyl-1-cyclopropyl)-penem-3-carboxylic acid] | 0.016 µg/mL (≈ 0.0666 µM) | 0.03 µg/mL (≈ 0.125 µM) | 0.06 µg/mL (≈ 0.25 µM) | 0.25 µg/mL | 0.5 µg/mL (≈ 2.08 µM) | > 63 µg/mL | 16 µg/mL (≈ 66.6 µM) | 4 µg/mL (≈ 16.6 µM) | 16 µg/mL (≈ 66.6 µM) | 16 µg/mL (≈ 66.6 µM) | > 63 µg/mL | 8 µg/mL (≈ 33.3 µM) | 16 µg/mL (≈ 66.6 µM) | 8 µg/mL (≈ 33.3 µM) | 32 µg/mL (≈ 133 µM) | – | – | 8 µg/mL (≈ 33.3 µM) | 16 µg/mL (≈ 66.6 µM) | 0.8 mg/kg | Minimum Inhibitory Concentration (M.I.C.) [3]: 125 µg/mL
3 | C[C@@H](O)[C@H]1C(=O)N2C(C(=O)O)=C(COCCN)S[C@H]12 (relative stereo) [Example 66, (1'R,5R, 6S and 1'S,5S,6R) 6-(1'-Hydroxyethyl)-2-(2-aminoethoxymethyl)penem-3-carboxylic Acid (isomer B)] | – | – | – | – | – | – | – | – | – | – | – | – | – | – | – | – | – | – | – | – | ED50 (S. aureus A9537; 1.1 × 10^6 organisms): 0.12 mg/kg
4 | C[C@@H](O)[C@H]1C(=O)N2C(C(=O)O)=C(CN)S[C@H]12 (relative stereo) [Example 62, (1'R,5R,6S and 1'S,5S,6R) 2-Aminomethyl-6-(1'-hydroxy-1'-ethyl)-penem-3-carboxylic Acid (isomer B)] | 0.03 µg/mL (≈ 0.123 µM) | 0.5 µg/mL (≈ 2.05 µM) | 0.03 µg/mL (≈ 0.123 µM) | 0.25 µg/mL | 0.25 µg/mL (≈ 1.02 µM) | 0.5 µg/mL (≈ 2.05 µM) | 32 µg/mL (≈ 131 µM) | 8 µg/mL (≈ 32.8 µM) | 8 µg/mL (≈ 32.8 µM) | 16 µg/mL (≈ 65.5 µM) | 32 µg/mL (≈ 131 µM) | 2 µg/mL (≈ 8.19 µM) | 2 µg/mL (≈ 8.19 µM) | 16 µg/mL (≈ 65.5 µM) | 32 µg/mL (≈ 131 µM) | 1 µg/mL (≈ 4.09 µM) | 2 µg/mL (≈ 8.19 µM) | 2 µg/mL (≈ 8.19 µM) | 2 µg/mL (≈ 8.19 µM) | – | ED50 (S. aureus A9537; 8.6 × 10^5 organisms): 1 mg/kg
